Tests used:
[1] = DOX alone or DOX co-treated with the compound
[2] = system: drug induced diabetes animal model; assay: Drug induced diabetes animal model with cardiomyopathy; type: in vivo; conditions: cardiomyopathy developed after 4 weeks; treatment for 2 weeks
Excerpt: In other embodiment, this invention disclosed that in a drug induced diabetes animal model, cardiomyopathy was developed after 4 weeks. However, the cardiac inflammatory changes were diminished after treatment of compound 1 and 2 for 2 weeks.

[3] = system: cardiac ischemia animal model by coronary ligation; assay: Cardiac ischemia animal model by coronary ligation; type: in vivo; conditions: for area of infraction / cardiac contractility / number of micro-blood vessels: coronary ligation, in comparison of control; for function of failing heart due to acute coronary ligation / occurrence of arrhythmia induced by acute ischemia: in vivo
Excerpt: This invention disclosed that compound 1 and 2 can increased the function of failing heart due to acute coronary ligation.

[4] = system: cerebral ischemia animal model; assay: Cerebral ischemia animal model; type: in vivo; conditions: in comparison of control
[5] = system: Doxorubicin-induced cardiotoxicity; assay: Protection against Doxorubicin-induced cardiotoxicity / cardiac dysfunctions in vivo; conditions: among the synthesized new kaurane analogues
[6] = system: chronic cardiac hypertrophy and heart failure animal induced by TAC; assay: Chronic cardiac hypertrophy and heart failure animal induced by TAC (Thoracic aorta constriction); type: in vivo; conditions: for interstitial collagen deposition (histo-pathology) / number of myofibroblasts (histo-pathology) / size of cardiomyocytes (histo-pathology): treated 4 weeks, in comparing to control; for cardiac contractility: treated for consecutive 4 weeks after the surgery, in comparing of control animals
Experimental: Furthermore, in an embodiment of this invention, a chronic cardiac hypertrophy and heart failure animal was induced by TAC (Thoracic aorta constriction) . The animal was treated with compound 1 and 2 for consecutive 4 weeks after the surgery.

[7] = system: cardiac toxicity animal induced by other drugs used for chemotherapy; assay: Cardiac toxicity animal induced by other chemotherapy drugs (anthracyclines: epirubicin, daunorubicin, aclarubicin); type: in vivo; conditions: cardiac toxicity induced by anthracyclines including epirubicin

COc1cccc2c1C(=O)c1c(O)c3c(c(O)c1C2=O)C[C@@](O)(C(=O)CO)C[C@@H]3O[C@H]1C[C@H](N)[C@H](O)[C@H](C)O1 [DOX, Doxorubicin, reference compound]
LC50 of DOX [1]: 51.56 µM

C[C@]12CC[C@@H]3C(CC[C@H]4[C@@]3(C)CCC[C@@]4(C)C(=O)O)(C1)[C@H](C(=O)O)[C@H]2O [compound 1, (4R, 4aS, 7S, 8R, 9S, 11aS, 11lbS)-8-hydroxy-4,9, 11b-trimethyltetradecahydro-6a, 9-methanocyclohepta[a]naphthalene-4,7-dicarboxylic acid]
cardiac inflammatory changes [2]: diminished
area of infraction [3]: reduced
cardiac contractility [3]: significantly increased
number of micro-blood vessels [3]: increased
function of failing heart due to acute coronary ligation [3]: increased
occurrence of arrhythmia induced by acute ischemia [3]: reduced
area of infraction [4]: significantly reduced
movement and behavers [4]: improved
protective activity against Doxorubicin-induced cardiotoxicity [5]: maximum protective activity
LC50 of DOX [1]: 66.62 µM
interstitial collagen deposition (histo-pathology) [6]: reduced
number of myofibroblasts (histo-pathology) [6]: reduced
size of cardiomyocytes (histo-pathology) [6]: significant reduction
cardiac contractility [6]: significantly enhanced
effects in term of function and pathology [7]: Signiant beneficial effects

C[C@]12CC[C@@H]3C(CC[C@H]4[C@@]3(C)CCC[C@@]4(C)C(=O)O)(C1)[C@H](C=O)[C@H]2O [compound 2, (4R, 4aS, 7S, 8R, 9S, 11aS, 11bS)-7-formyl-8-hydroxy-4,9, llb-trimethyltetradecahydro-6a, 9-methanocyclohepta[a]naphthalene-4-carboxylic acid]
cardiac inflammatory changes [2]: diminished
area of infraction [3]: reduced
cardiac contractility [3]: significantly increased
number of micro-blood vessels [3]: increased
function of failing heart due to acute coronary ligation [3]: increased
occurrence of arrhythmia induced by acute ischemia [3]: reduced
area of infraction [4]: significantly reduced
movement and behavers [4]: improved
protective activity against Doxorubicin-induced cardiotoxicity [5]: maximum protective activity
LC50 of DOX [1]: 92.61 µM
interstitial collagen deposition (histo-pathology) [6]: reduced
number of myofibroblasts (histo-pathology) [6]: reduced
size of cardiomyocytes (histo-pathology) [6]: significant reduction
cardiac contractility [6]: significantly enhanced
effects in term of function and pathology [7]: Signiant beneficial effects

C[C@]12CC[C@@H]3C(CC[C@H]4[C@@]3(C)CCC[C@@]4(C)C(=O)O)(C1)[C@H](CO)C2=O [compound 3, (4R, 4aS, 7R, 9S, 11aS, 11bS)-7-(hydroxymethyl)-4,9, 11b-trimethyl-8-oxotetradecahydro-6a, 9-methanocyclohepta[a]naphthalene-4-carboxylic acid]
LC50 of DOX [1]: 74.83 µM

From patent US20220204437A1, “New Kaurane analogues, their preparation and therapeutically uses” (KEY PHARMA BIOMEDICAL INC., priority 2019, published 2022)
